From patent US10118916B2, “Modulators of cystic fibrosis transmembrane conductance regulator protein” (AbbVie S.à.r.l., priority 2016, dated 2018)
pEC50: −log10 of the molar value.

How the values were obtained:
F508delCFTR = biological target: T1, F508delCFTR (Homo sapiens, UniProt P13569, DEL508-508); assay: Cell Surface Expression-Horse Radish Peroxidase (CSE-HRP) assay; assay type: cell-based; settings: CFBE41o-F508delCFTR-HRP cells; for pEC50: F508delCFTR cell surface expression, luminescence, 18-24 hours at 33° C., highest concentration 20 μM; for Maximum % activity: maximum at any tested concentration, normalized to on-plate positive control (3 μM)
T1 construct: expressed in transfected cells; host or cells: CFBE41o- (human lung derived epithelial cell line), doxycycline-inducible
T1 sequence (P13569 with tags, fused parts or gaps DEL508-508): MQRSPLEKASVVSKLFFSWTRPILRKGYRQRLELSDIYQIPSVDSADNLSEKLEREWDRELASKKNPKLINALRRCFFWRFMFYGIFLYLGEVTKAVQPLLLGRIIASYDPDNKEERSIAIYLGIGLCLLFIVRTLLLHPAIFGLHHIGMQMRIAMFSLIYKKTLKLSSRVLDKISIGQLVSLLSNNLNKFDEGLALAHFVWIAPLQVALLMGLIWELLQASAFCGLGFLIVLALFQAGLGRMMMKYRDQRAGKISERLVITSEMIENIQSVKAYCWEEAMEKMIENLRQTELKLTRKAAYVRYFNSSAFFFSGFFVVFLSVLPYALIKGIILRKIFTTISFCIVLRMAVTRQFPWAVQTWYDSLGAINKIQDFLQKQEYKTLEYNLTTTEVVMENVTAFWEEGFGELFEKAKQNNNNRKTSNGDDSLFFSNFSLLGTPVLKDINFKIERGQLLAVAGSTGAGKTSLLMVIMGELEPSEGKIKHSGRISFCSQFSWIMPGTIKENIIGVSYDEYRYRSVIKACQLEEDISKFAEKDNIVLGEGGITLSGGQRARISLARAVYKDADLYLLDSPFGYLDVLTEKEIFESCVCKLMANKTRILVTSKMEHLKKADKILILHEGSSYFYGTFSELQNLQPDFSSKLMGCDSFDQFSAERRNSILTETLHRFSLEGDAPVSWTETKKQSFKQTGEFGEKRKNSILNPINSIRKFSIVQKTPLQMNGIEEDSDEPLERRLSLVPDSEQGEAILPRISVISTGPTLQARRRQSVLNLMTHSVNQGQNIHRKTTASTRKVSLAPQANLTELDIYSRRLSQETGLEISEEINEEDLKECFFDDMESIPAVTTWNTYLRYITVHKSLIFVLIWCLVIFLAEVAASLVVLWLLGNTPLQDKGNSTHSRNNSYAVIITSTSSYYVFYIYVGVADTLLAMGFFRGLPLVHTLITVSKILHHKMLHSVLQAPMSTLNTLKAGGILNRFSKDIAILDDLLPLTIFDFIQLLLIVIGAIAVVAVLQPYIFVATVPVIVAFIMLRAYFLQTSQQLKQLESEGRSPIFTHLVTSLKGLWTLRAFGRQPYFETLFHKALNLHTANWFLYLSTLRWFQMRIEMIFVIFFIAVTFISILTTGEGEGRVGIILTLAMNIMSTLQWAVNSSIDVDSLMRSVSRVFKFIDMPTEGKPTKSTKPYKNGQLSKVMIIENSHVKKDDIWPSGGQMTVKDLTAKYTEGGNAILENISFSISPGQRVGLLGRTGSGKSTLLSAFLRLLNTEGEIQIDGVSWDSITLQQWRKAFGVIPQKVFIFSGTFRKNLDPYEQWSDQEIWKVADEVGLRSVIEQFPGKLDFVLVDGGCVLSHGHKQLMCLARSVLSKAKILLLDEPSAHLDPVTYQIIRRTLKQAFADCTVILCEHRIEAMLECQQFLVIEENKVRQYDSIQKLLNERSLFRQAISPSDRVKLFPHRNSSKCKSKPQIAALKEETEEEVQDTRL
Outline: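 CFBE41o- cells expressing doxycycline-induced (0.5 μg/mL, 72 h at 37 °C) F508delCFTR with HRP in the fourth extracellular loop; compounds 8 points, 3-fold from 20 μM, 18-24 h at 33 °C. Surface HRP measured by luminol luminescence, normalised to DMSO and 3 μM reference corrector; EC50 from variable-slope sigmoidal fit of triplicate plates.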

F508del/F508del CFTR = biological target: T2, F508del/F508del CFTR (Homo sapiens, UniProt P13569, DEL508-508); assay: Transepithelial Clamp Circuit (TECC-24) conductance assay on primary human bronchial epithelial cells (hBE-TECC); assay type: cell-based; settings: for pEC50: equivalent short circuit current, 18-24 hours at 37° C., with control potentiator; for Maximum % activity: relative to positive control (3 μM) coupled with control potentiator
T2 construct: cells isolated from CF patients with the homozygous mutation; endogenous in cells; host or cells: primary human bronchial epithelial (hBE) cells from F508del/F508del CF patients
T2 sequence (P13569 with tags, fused parts or gaps DEL508-508): as above
Source text: Transepithelial Clamp Circuit on Human Bronchial Epithelial Cells Conductance Assay:
A cell based assay using the primary human bronchial epithelial cells (hBE) was used as a secondary assay to test novel F508delCFTR correctors for their activity on primary hBE cells with F508del/F508del CFTR mutation. The assay used a TECC-24 (Transepithelial Clamp Circuit for 24 wells) instrument that measures the functionality of the mutated channel by measuring the equivalent short circuit current (Ieq) generated by the polarized epithelial cells. The instrument works by measuring the transepithelial potential difference (Vt) and transepithelial resistance (Rt) in an open circuit format, and the Ieq is calculated by using Ohms law (Ieq=Vt/Rt). The assay was run in a 24-well format and all 24-wells were measured at the same time point giving a higher throughput for this assay.
Primary human bronchial epithelial (hBE) cells from F508del/F508delCFTR patients were expanded from 1×10^6 to 250×10^6 cells (Neuberger T, Burton B, Clark H and VanGoor F; Cystic Fibrosis, Methods in Mole Biol 741; eds. Amaral M D and Kunzelmann K, 2011). For this purpose, cells isolated from CF patients with the homozygous mutation were seeded onto 24 well Corning (Cat #3378) filter plates that were coated with 3T3 conditioned media and grown at an air-liquid interface for 35 days using an Ultroser® G supplemented differentiation media. Apical surface mucus was removed 72 hours before the experiment using 3 mM dithiothreitol (DTT) in phosphate buffered saline (PBS). The apical surface was washed again 24 hours before the experiment using PBS. The cells were incubated with the desired dose response of the corrector compounds 18-24 hours at 37° C., 5% CO2. The corrector compounds are only added on the basolateral side of the epithelial cells.
On the day of measuring the corrector activity on the TECC, the cells were switched into a bicarbonate and serum free F-12 Coon's medium and allowed to equilibrate for 30 minutes in a CO2 free incubator. At the time of measurement, the apical and basolateral sides of the filter were bathed with the F-12 Coon's modification media (with 20 mM 4-(2-hydroxyethyl)-1-piperazineethanesulfonic acid (HEPES), pH 7.4 (using 1 M tris(hydroxymethyl)aminomethane (Tris)), and the measurements were made at 36.5° C. Transepithelial voltage (Vt) and transepithelial resistance (Rt) were measured using a 24 channel transepithelial current clamp (TECC-24). Current responses to the sequential addition of benzamil (apical 6 μM addition; for inhibiting epithelial ENaC channel), forskolin (apical and basolateral 10 μM addition; for activating the CFTR channel), control potentiator (N-(3-carbamoyl-5,5,7,7-tetramethyl-4,7-dihydro-5H-thieno[2,3-c]pyran-2-yl)-1H-pyrazole-5-carboxamide; apical and basolateral 1 μM addition; for potentiating the CFTR channel) and bumetanide (basolateral 20 μM addition; for inhibiting the Na:2Cl:K co-transporter, an indirect measure of inhibiting the Cl— secretion driven by CFTR channel) were measured.
All plates contained negative controls (dimethyl sulfoxide, DMSO) which coupled with the control potentiator (N-(3-carbamoyl-5,5,7,7-tetramethyl-4,7-dihydro-5H-thieno[2,3-c]pyran-2-yl)-1H-pyrazole-5-carboxamide) sets the null response and positive controls (3 μM of 3-[(2R,4R)-4-({[1-(2,2-difluoro-1,3-benzodioxol-5-yl)cyclopropyl]carbonyl}amino)-7-methoxy-3,4-dihydro-2H-chromen-2-yl]benzoic acid) coupled with the control potentiator sets the 100% response to measure the correction of the mutated CFTR channel. The maximum percent activity is reported relative to the positive control value.
The % activity measured at each of the 6 test concentrations of the test compound was normalized to the on-plate positive control using the following formula: % activity=[(test compound response−DMSO response)/(positive control response−DMSO response)]*100 […]

COc1ccc2c(c1)O[C@@H](c1cccc(C(=O)O)c1)C[C@H]2NC(=O)[C@@]1(C)CCc2cc(C)ccc21 (single isomer, unassigned) [Example 8]
pEC50 (F508delCFTR): 7.00 | Maximum % activity (F508delCFTR): 91.3% | pEC50 (F508del/F508del CFTR): 7.62 | Maximum % activity (F508del/F508del CFTR): 85.6%

COc1ccc2c(c1)O[C@@H]([C@H]1CC[C@H](C(=O)O)CC1)C[C@H]2NC(=O)C1(c2ccc3c(c2)OC(F)(F)O3)CC1 [Example 11, trans-4-[(2R,4R)-4-{[1-(2,2-difluoro-2H-1,3-benzodioxol-5-yl)cyclopropane-1-carbonyl]amino}-7-methoxy-3,4-dihydro-2H-1-benzopyran-2-yl]cyclohexane-1-carboxylic acid]
pEC50 (F508delCFTR): 6.51 | Maximum % activity (F508delCFTR): 124.5% | pEC50 (F508del/F508del CFTR): 7.68 | Maximum % activity (F508del/F508del CFTR): 104.3%

O=C(N[C@@H]1C[C@H]([C@H]2CC[C@H](C(=O)O)CC2)Oc2cc(OC(F)(F)F)ccc21)C1(c2ccc3c(c2)OC(F)(F)O3)CC1 [Example 13, trans-4-[(2R,4R)-4-{[1-(2,2-difluoro-2H-1,3-benzodioxol-5-yl)cyclopropane-1-carbonyl]amino}-7-(trifluoromethoxy)-3,4-dihydro-2H-1-benzopyran-2-yl]cyclohexane-1-carboxylic acid]
pEC50 (F508delCFTR): 7.52 | Maximum % activity (F508delCFTR): 124.0% | pEC50 (F508del/F508del CFTR): 8.40 | Maximum % activity (F508del/F508del CFTR): 117.5%

COc1ccc2c(c1)O[C@@H](c1ccc(C(=O)O)cc1)C[C@H]2NC(=O)C(C)(C)c1ccc(OC(F)(F)F)cc1 [Example 109, 4-[(2R,4R)-7-methoxy-4-{2-methyl-2-[4-(trifluoromethoxy)phenyl]propanamido}-3,4-dihydro-2H-1-benzopyran-2-yl]benzoic acid]
pEC50 (F508delCFTR): 5.87 | Maximum % activity (F508delCFTR): 93.0%

COc1ccc2c(c1)O[C@@H](c1ccc(C(=O)O)cc1)C[C@H]2NC(=O)C(C)(C)c1ccc(Cl)cc1 [Example 110, 4-{(2R,4R)-4-[2-(4-chlorophenyl)-2-methylpropanamido]-7-methoxy-3,4-dihydro-2H-1-benzopyran-2-yl}benzoic acid]
pEC50 (F508delCFTR): 6.51 | Maximum % activity (F508delCFTR): 85.0%

COc1ccc2c(c1)O[C@@H](c1ccc(C(=O)O)cc1)C[C@H]2NC(=O)C(C)(C)c1ccc(F)cc1 [Example 111, 4-{(2R,4R)-4-[2-(4-fluorophenyl)-2-methylpropanamido]-7-methoxy-3,4-dihydro-2H-1-benzopyran-2-yl}benzoic acid]
pEC50 (F508delCFTR): 6.08 | Maximum % activity (F508delCFTR): 47.7%

COc1ccc2c(c1)O[C@@H](c1ccc(C(=O)O)cc1)C[C@H]2NC(=O)C(C)(C)c1ccc2c(c1)OCCO2 [Example 112, 4-{(2R,4R)-4-[2-(2,3-dihydro-1,4-benzodioxin-6-yl)-2-methylpropanamido]-7-methoxy-3,4-dihydro-2H-1-benzopyran-2-yl}benzoic acid]
pEC50 (F508delCFTR): 6.44 | Maximum % activity (F508delCFTR): 59.9%

COc1ccc2c(c1)O[C@@H](c1ccc(C(=O)O)cc1)C[C@H]2NC(=O)C(C)(C)c1ccc(OC)c(F)c1 [Example 113, 4-{(2R,4R)-4-[2-(3-fluoro-4-methoxyphenyl)-2-methylpropanamido]-7-methoxy-3,4-dihydro-2H-1-benzopyran-2-yl}benzoic acid]
pEC50 (F508delCFTR): 7.22 | Maximum % activity (F508delCFTR): 43.5%

COc1ccc(C2(C(=O)N[C@@H]3C[C@H](c4ccc(C(=O)O)cc4)Oc4cc(OC)ccc43)CCCC2)cc1 [Example 114, 4-[(2R,4R)-7-methoxy-4-{[1-(4-methoxyphenyl)cyclopentane-1-carbonyl]amino}-3,4-dihydro-2H-1-benzopyran-2-yl]benzoic acid]
pEC50 (F508delCFTR): < 4.70 | Maximum % activity (F508delCFTR): 2.2%

COc1ccc(C2(C(=O)N[C@@H]3C[C@H](c4ccc(C(=O)O)cc4)Oc4cc(OC)ccc43)CCC2)cc1 [Example 115, 4-[(2R,4R)-7-methoxy-4-{[1-(4-methoxyphenyl)cyclobutane-1-carbonyl]amino}-3,4-dihydro-2H-1-benzopyran-2-yl]benzoic acid]
pEC50 (F508delCFTR): 6.20 | Maximum % activity (F508delCFTR): 69.8%

COc1ccc2c(c1)O[C@@H](c1ccc(C(=O)O)cc1)C[C@H]2NC(=O)C1(c2ccc(OC)c(OC)c2)CCC1 [Example 116, 4-[(2R,4R)-4-{[1-(3,4-dimethoxyphenyl)cyclobutane-1-carbonyl]amino}-7-methoxy-3,4-dihydro-2H-1-benzopyran-2-yl]benzoic acid]
pEC50 (F508delCFTR): 5.49 | Maximum % activity (F508delCFTR): 27.6%

COc1ccc(C(C)(C)C(=O)N[C@@H]2C[C@H](c3ccc(C(=O)O)cc3)Oc3cc(OC)ccc32)c(F)c1 [Example 117, 4-{(2R,4R)-4-[2-(2-fluoro-4-methoxyphenyl)-2-methylpropanamido]-7-methoxy-3,4-dihydro-2H-1-benzopyran-2-yl}benzoic acid]
pEC50 (F508delCFTR): 6.46 | Maximum % activity (F508delCFTR): 47.0%

COc1ccc2c(c1)O[C@@H](c1ccc(C(=O)O)cc1)C[C@H]2NC(=O)C(C)(C)Oc1ccc(F)cc1 [Example 118, 4-{(2R,4R)-4-[2-(4-fluorophenoxy)-2-methylpropanamido]-7-methoxy-3,4-dihydro-2H-1-benzopyran-2-yl}benzoic acid]
pEC50 (F508delCFTR): < 4.70 | Maximum % activity (F508delCFTR): 16.3%

COc1ccc2c(c1)O[C@@H](c1ccc(C(=O)O)cc1)C[C@H]2NC(=O)C(C)(C)Oc1ccc(Cl)cc1 [Example 119, 4-{(2R,4R)-4-[2-(4-chlorophenoxy)-2-methylpropanamido]-7-methoxy-3,4-dihydro-2H-1-benzopyran-2-yl}benzoic acid]
pEC50 (F508delCFTR): 5.53 | Maximum % activity (F508delCFTR): 27.4%

COc1ccc2c(c1)O[C@@H](c1ccc(C(=O)O)cc1)C[C@H]2NC(=O)C(C)(C)c1ccc2c(c1)OCO2 [Example 120, 4-{(2R,4R)-4-[2-(2H-1,3-benzodioxol-5-yl)-2-methylpropanamido]-7-methoxy-3,4-dihydro-2H-1-benzopyran-2-yl}benzoic acid]
pEC50 (F508delCFTR): 7.30 | Maximum % activity (F508delCFTR): 73.9%

COc1ccc(C(C)(C)C(=O)N[C@@H]2C[C@H](c3ccc(C(=O)O)cc3)Oc3cc(OC)ccc32)cc1 [Example 121, 4-{(2R,4R)-7-methoxy-4-[2-(4-methoxyphenyl)-2-methylpropanamido]-3,4-dihydro-2H-1-benzopyran-2-yl}benzoic acid]
pEC50 (F508delCFTR): 7.15 | Maximum % activity (F508delCFTR): 49.6%

COc1ccc2c(c1)O[C@@H](c1cccc(C(=O)O)c1)C[C@H]2NC(=O)C1(C)CCc2cc(C)ccc21 (stereo partly drawn) [Example 122, 3-{(2R,4R)-4-[(1,5-dimethyl-2,3-dihydro-1H-indene-1-carbonyl)amino]-7-methoxy-3,4-dihydro-2H-1-benzopyran-2-yl}benzoic acid]
pEC50 (F508delCFTR): 6.51 | Maximum % activity (F508delCFTR): 86.2%

COC(=O)c1ccc([C@H]2C[C@@H](NC(=O)C3(C)CCc4cc(C)ccc43)c3ccc(OC)cc3O2)cc1 (stereo partly drawn) [Example 124, methyl 4-{(2R,4R)-4-[(1,5-dimethyl-2,3-dihydro-1H-indene-1-carbonyl)amino]-7-methoxy-3,4-dihydro-2H-1-benzopyran-2-yl}benzoate]
pEC50 (F508delCFTR): 6.34 | Maximum % activity (F508delCFTR): 87.7%
